Assay results taken from patent US8603550B1, “Compositions for topical treatment” (priority 2013, dated 2013).

How the values were obtained:
[1] = system: Staphylococcus aureus ATCC 6538 (MSSA); assay: Zone of inhibition test (agar well); assay type: cell-based; details: S. aureus ATCC 6538; 7 mm well, about 0.2 ml product, 37° C., 24 hours
Protocol: (§1) An overnight culture of the test organism is diluted to 0.40 OD at 600 nm and then further diluted 10^−2 to obtain approximately 3×10^6 CFU/ml for the inoculation of TSA or SDA plates as follows: a 0.5 ml volume is spread across the surface of a sterile agar plate and allowed to dry. A 7 mm well is made in the center of the agar plate and approximately 0.2 ml of product is pipetted into the well. Additionally, Finipil is tested against S. aureus. The plates are incubated at 37° C. for 24 hours and the zones of inhibition are determined by measuring the diameter of the clear circular area around the product filled well.
(§2) *Becton Dickinson BBL Cefoxitin 30 microgram Sensi-Disk® sensitivity disks will be used to indicate susceptibility to Methicillin

[2] = system: Staphylococcus aureus ATCC 33592 (MRSA); assay: Zone of inhibition test (agar well); assay type: cell-based; details: S. aureus ATCC 33592 (methicillin resistant); 7 mm well, 37° C., 24 hours
Protocol: as §1, §2

Q: Which results are given for `CO[C@@]1(NC(=O)Cc2cccs2)C(=O)N2C(C(=O)O)=C(COC(N)=O)CS[C@@H]21` [Cefoxitin disk, Cefoxitin]?
A: Zone of inhibition (diameter) [1]: 33 mm; Zone of inhibition (diameter) [2]: 10 mm
